Measured values: article PMC10673058, “In Silico and In Vitro Search for Dual Inhibitors of the Trypanosoma brucei and Leishmania major Pteridine Reductase 1 and Dihydrofolate Reductase” (Molecules, 2023)
Like-named read-outs stand apart in the source and are kept apart here.

What was measured:
TbPTR1 [1] = biological target: T1, TbPTR1 (Trypanosoma brucei brucei, UniProt O76290)
T1 construct: His6 (N); made in house; host or cells: E. coli BL21 (DE3), vector pET 15b::TbPTR1His (strain from the group of M. Paola Costi, Modena)
T1 sequence (O76290 1-268): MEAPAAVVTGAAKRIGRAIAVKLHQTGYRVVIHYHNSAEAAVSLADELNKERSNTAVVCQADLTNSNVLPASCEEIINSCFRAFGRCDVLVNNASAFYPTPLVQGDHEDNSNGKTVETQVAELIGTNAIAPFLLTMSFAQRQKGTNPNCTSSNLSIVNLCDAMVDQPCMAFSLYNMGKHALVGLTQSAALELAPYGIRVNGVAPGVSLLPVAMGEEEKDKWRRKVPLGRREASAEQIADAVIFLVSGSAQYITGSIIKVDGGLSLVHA

TbPTR1 [2] = biological target: T1, TbPTR1; assay: Dilution assay for reversible/irreversible inhibition of TbPTR1; assay type: biochemical; conditions: inhibitor concentration near IC50
Source text: The catalytic center of TbPTR1 contains a cysteine residue (TbCys168) in close proximity to the substrate/inhibitor binding site. In our previous publication, we mentioned the possibility that Sesquiterpene Lactones 1 and 2 might interact as Michael acceptors with TbCys168 by covalent bond formation with its thiol group. Therefore, we have now subjected a selection of natural product inhibitors containing Michael acceptors (1, 2, 5, 17) to initial testing for irreversible inhibition, according to the dilution method described by Bisswanger (see Section 4.2.9).
In this method, the enzyme activity of the respective enzyme-inhibitor mixture is measured before and after a defined dilution (in this study, 1:2). In the absence of an inhibitor, dilution decreases the enzyme activity proportionally to the dilution factor. […] A reversible inhibitor, on the other hand, will dissociate upon dilution, resulting in a weaker decrease in activity than what corresponds to the dilution effect. In the presence of Inhibitors 1 and 2, the decrease in TbPTR1 activity upon the 1:2 dilution was almost proportional to the dilution factor, i.e., only 9.5% and 6.8% activity, respectively, were recovered compared to the reference. This would indeed support an irreversible mechanism of inhibition. […] However, further investigations on these compounds’ mechanisms of inhibition are under way.
To assign an either reversible or irreversible inhibition mechanism to selected compounds, the enzymatic activity of an enzyme-inhibitor mixture was determined before and after a defined dilution, using the reaction conditions described in Section 4.2.5 [16].
Two equivalent solutions with the respective enzyme and inhibitor combination were prepared, one of them being diluted with buffer in a 1:2 ratio shortly before the reaction was started by adding the substrate. The respective inhibitor concentration was set near the IC50 value. The substrate and cofactor concentrations were kept constant in both reaction mixtures. All measurements were carried out in duplicates against a reference containing DMSO instead of the inhibitor. […] If a reversible inhibitor was present, a higher degree of activity recovery (>>10%) could be observed than what corresponds to the dilution factor due to the partial dissociation of the inhibitor from the enzyme upon dilution. The percentual changes in the enzymatic activity of the undiluted and diluted test solution were compared and evaluated to decide the mechanism of inhibition.

hDHFR = biological target: T2, hDHFR (Homo sapiens, UniProt P00374); assay: Spectrophotometric enzyme inhibition assay, recombinant hDHFR (selectivity); assay type: biochemical; conditions: for EC50: read-out: EC50 hDHFR (footnote a); for inhibition at 50 µM: set compound concentration of 50 μM, read-out: relative inhibition of hDHFR
T2 construct: His; host or cells: E. coli BL21 (DE3), vector pET 15b::hDHFRHis
T2 sequence (P00374 1-187): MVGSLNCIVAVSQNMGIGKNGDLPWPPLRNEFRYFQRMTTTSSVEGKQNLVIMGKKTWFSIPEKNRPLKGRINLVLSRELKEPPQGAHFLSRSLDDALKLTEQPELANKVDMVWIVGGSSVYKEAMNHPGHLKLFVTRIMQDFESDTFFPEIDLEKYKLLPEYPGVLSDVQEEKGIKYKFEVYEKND
Description: For 15 compounds, there was enough substance available to be tested in selectivity studies against hDHFR.
The used hDHFR concentration was 0.64 mg/mL, with a specific activity of 0.62 U/mg. All measurements were carried out using the saturating concentrations for dihydrofolate (100 μM) and NADPH (50 μM) in Buffer C (50 mM Tris/HCl (pH 7.6), 250 mM NaCl, 10 mM BME). The saturating conditions for hDHFR were determined using the diagrams depicted in Figure S20 in the Supplementary Materials.
(§1) The inhibitory effect of the selected natural products was investigated by testing the DMSO solution of each compound at a constant concentration of 100 μM for TbPTR1 and 50 μM for LmPTR1, TbDHFR, and LmDHFR, as well as hDHFR. The concentrations of the cofactor and substrates were set at the previously determined saturating conditions (Section 4.2.5). Each test compound was incubated for 20 min with the respective enzyme and NADPH to ensure a sufficient interaction time before the reaction was induced by the addition of the substrate. The enzymatic activity was determined in duplicates and correlated with a reference that contained just DMSO, instead of an inhibitor. The enzymatic activity of the reference was normalized to 100%.
(§2) The half-maximal inhibitory concentration (IC50) of the natural products was determined in triplicate, using at least five different inhibitor concentrations against a reference containing no inhibitor. The enzymatic activity was documented and analyzed and the IC50 value was determined by nonlinear regression using GraphPad Prism 9 (GraphPad Software Inc., La Jolla, CA, USA).

LmPTR1 [3] = biological target: T3, LmPTR1 (Leishmania major, UniProt Q01782); assay: Spectrophotometric enzyme inhibition assay, recombinant LmPTR1; assay type: biochemical; conditions: for IC50: read-out: IC50 LmPTR1
T3 construct: His6 (N); made in house; host or cells: E. coli BL21 (DE3), vector pET 15b::LmPTR1His (strain from the group of M. Paola Costi, Modena)
T3 sequence (Q01782 1-288): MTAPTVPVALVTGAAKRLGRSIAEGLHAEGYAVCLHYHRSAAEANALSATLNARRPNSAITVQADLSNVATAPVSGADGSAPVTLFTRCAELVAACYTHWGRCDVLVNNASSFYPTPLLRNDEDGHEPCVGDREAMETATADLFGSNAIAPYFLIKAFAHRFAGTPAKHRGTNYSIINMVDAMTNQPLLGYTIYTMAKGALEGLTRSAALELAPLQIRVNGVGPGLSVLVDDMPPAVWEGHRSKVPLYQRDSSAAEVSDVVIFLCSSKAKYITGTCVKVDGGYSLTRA
Description: (§3) Based on the in vitro assays against TbPTR1 and LmPTR1 performed in the previous works of our group, as well as the in silico results obtained from the current study, a total of 47 natural products were tested against the target enzymes. […] The concentration-effect curves for the IC50 and EC50 values that were obtained in the present study are depicted in Supplementary Materials Figures S21–S42.
(§4) The used TbPTR1 concentration was 3.23 mg/mL, with a specific activity of 0.03 U/mg. The measurements were carried out using the enzyme’s individual saturating concentrations for folic acid (8 μM) and NADPH (150 μM) in Buffer A (50 mM Tris/HCl (pH 7.6), 250 mM NaCl). For LmPTR1, the protein concentration was 5.02 mg/mL and the specific activity was calculated to be 0.29 U/mg. Buffer B (50 mM NaH2PO4 (pH 6.0), 100 mM NaCl) was used for all LmPTR1 measurements and the saturating concentrations amounted to 50 μM of folic acid and 200 μM of NADPH. The saturating conditions of the PTR1 enzymes were determined using the diagrams depicted in Figures S16 and S18 in the Supplementary Materials.
as §1, §2

TbDHFR = biological target: T4, TbDHFR (Trypanosoma brucei brucei, UniProt Q27783); assay: Spectrophotometric enzyme inhibition assay, recombinant TbDHFR; assay type: biochemical
T4 construct: pET 11D::TbDHFRHis vector design for the recombinant overexpression of TbDHFR in E. coli; His; made in house; host or cells: E. coli BL21(DE3), vector pET 11D::TbDHFRHis
Description: Based on the in vitro assays against TbPTR1 and LmPTR1 performed in the previous works of our group, as well as the in silico results obtained from the current study, a total of 47 natural products were tested against the target enzymes.
The saturating conditions for TbDHFR and LmDHFR were determined using the diagrams depicted in Figures S17 and S19 in the Supplementary Materials.
as §1, §2

LmDHFR = biological target: T5, LmDHFR (Leishmania major, UniProt P07382); assay: Spectrophotometric enzyme inhibition assay, recombinant LmDHFR; assay type: biochemical
T5 construct: The DNA fragment encoding LmDHFR was amplified by Phusion DNA polymerase; His6 (N); made in house; host or cells: E. coli BL21(DE3), vector pET 11D::LmDHFRHis
T5 sequence (P07382 26-229 limits assumed): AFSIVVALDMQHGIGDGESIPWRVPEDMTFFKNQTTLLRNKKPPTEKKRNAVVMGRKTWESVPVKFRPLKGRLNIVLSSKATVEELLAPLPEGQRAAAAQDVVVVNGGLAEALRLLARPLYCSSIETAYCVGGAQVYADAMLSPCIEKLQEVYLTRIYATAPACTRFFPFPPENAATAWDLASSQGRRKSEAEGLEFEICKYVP
Description: as §3
The TbDHFR concentration was measured to be 0.04 mg/mL and a specific activity of 38.1 U/mg was calculated. The concentration of LmDHFR was 0.05 mg/mL with a specific activity of 56.2 U/mg. All measurements were carried out using the saturating concentrations for dihydrofolate (50 μM) and NADPH (150 μM) in Buffer C (50 mM Tris/HCl (pH 7.6), 250 mM NaCl, 10 mM BME). The saturating conditions for TbDHFR and LmDHFR were determined using the diagrams depicted in Figures S17 and S19 in the Supplementary Materials.
as §1, §2

T. brucei [4] = conditions: read-out: EC50 in vitro against T. brucei; cited from earlier work
L. major = conditions: read-out: EC50 against L. major; cited from earlier work
TbPTR1 [5] = biological target: T1, TbPTR1; assay: Spectrophotometric enzyme inhibition assay, recombinant TbPTR1; assay type: biochemical
Description: as §3, §4, §1, §2

T. brucei [6] = system: T. brucei; design: method as in PMID 27077842; conditions: read-out: IC50 antitrypanosomal activity in T. brucei cell assays; cited from earlier work
LmPTR1 [7] = biological target: T3, LmPTR1; design: method as in PMID 29211037; conditions: read-out: IC50 LmPTR1; from previous study; cited from earlier work

T4 sequence (Q27783 28-238 limits assumed): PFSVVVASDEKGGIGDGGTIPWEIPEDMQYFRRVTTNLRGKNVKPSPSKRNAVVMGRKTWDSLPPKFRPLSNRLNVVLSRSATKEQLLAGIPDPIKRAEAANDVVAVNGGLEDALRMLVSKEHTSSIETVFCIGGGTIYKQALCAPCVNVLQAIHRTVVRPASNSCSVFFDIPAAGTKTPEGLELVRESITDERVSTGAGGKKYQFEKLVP

EC50 (hDHFR) | Compound | TbPTR1 activity recovered upon 1:2 dilution compared to the reference (TbPTR1 [2]) | IC50 (hDHFR) | IC50 (LmPTR1 [3]) | IC50 (TbDHFR; read-out: IC50 TbDHFR) | inhibition at 50 µM (hDHFR) | IC50 (TbPTR1 [5]; read-out: IC50 TbPTR1) | also measured
 | C=C1C(=O)O[C@@H]2/C=C(\CO)CC/C=C(\C)C[C@H](OC(=O)C(=C)[C@H](O)CO)[C@@H]12 [Compound 1, cnicin] | 9.5% | > 50 µM | > 50 µM | > 50 µM |  |  | EC50 (TbPTR1 [1]; EC50 value; from previous study; read-out: EC50 TbPTR1 (footnote a); cited from earlier work): 12.2 µM; inhibition of hDHFR (hDHFR): no relevant inhibition; inhibitory effect against LmPTR1 (LmPTR1 [3]): No relevant inhibitory effect
1.7 µM | CC(C)=CCc1c(O)cc2oc3cc(O)c(O)c(CCC(C)(C)O)c3c(=O)c2c1O [Compound 6, garcinone c] |  | 1.7 µM |  |  | > 50% |  | IC50 (TbPTR1 [1]; from previous study; read-out: IC50 TbPTR1; cited from earlier work): > 100 µM; IC50 (LmDHFR; read-out: IC50 LmDHFR): 3 µM
 | O=C(/C=C/CCc1ccc(O)c(O)c1)CCc1ccc(O)c(O)c1 [Compound 17, dehydrohirsutanone] | 12.8% | 40.7 µM | > 50 µM | 17.7 µM | > 50% | 8.3 µM | EC50 (T. brucei [4]): 2.5 µM; EC50 (L. major): > 100 µM
 | O=C(/C=C/c1ccc(O)c(O)c1/C=C/c1ccc(O)c(O)c1)O[C@H](Cc1ccc(O)c(O)c1)C(=O)O [Compound 8, salvianolic acid A] |  | > 50 µM |  |  |  | 85.1 µM | IC50 (T. brucei [6]): 3.1 µM; IC50 (TbDHFR): 2.5 µM; EC50 (LmDHFR): 18.7 µM
 | O=C(OC1Cc2c(O)cc(O)cc2OC1c1ccc(O)c(O)c1)c1cc(O)c(O)c(O)c1 (single isomer, unassigned; (-)) [Compound 3, (−)-catchin-3-gallate] |  | 4.2 µM |  |  | > 50% |  | IC50 (TbPTR1 [1]; read-out: IC50 TbPTR1; from previous study; cited from earlier work): > 100 µM; IC50 (LmPTR1 [7]): 75.3 µM; IC50 (LmDHFR): 0.6 µM
31.6 µM | C=C(C)[C@H](CC=C(C)C)Cc1c(O)cc(O)c2c1O[C@H](c1ccc(O)cc1O)CC2=O [Compound 9, sophoraflavanone G] |  |  |  | 9.4 µM | > 50% | 31.8 µM | IC50 (T. brucei [6]): 1.4 µM; IC50 (LmDHFR; read-out: IC50 LmDHFR): 14 µM
 | COc1cc(/C=C/C(=O)CC(=O)/C=C/c2ccc(O)c(OC)c2)ccc1O [Compound 5, curcumin] | 16.6% | 33.9 µM | > 50 µM |  | > 50% | 18.5 µM | EC50 (T. brucei [4]): 2.5 µM; EC50 (L. major): 33 µM

Compound | EC50 (hDHFR) | TbPTR1 activity recovered upon 1:2 dilution compared to the reference (TbPTR1 [2]) | IC50 (hDHFR) | IC50 (LmPTR1 [3]) | IC50 (TbDHFR; read-out: IC50 TbDHFR) | inhibition at 50 µM (hDHFR) | IC50 (TbPTR1 [5]; read-out: IC50 TbPTR1) | also measured
COc1cc([C@@H]2Oc3cc(-c4oc5cc(O)cc(O)c5c(=O)c4O)ccc3O[C@H]2CO)ccc1O [Compound 4, 2,3-dehydrosilybin B] | 3.8 µM |  |  |  |  | > 50% |  | IC50 (LmPTR1 [7]): 42.9 µM; IC50 (LmDHFR): 2.6 µM; IC50 (TbPTR1 [5]): > 100 µM
